Data on 19 compounds can be found in patent US20070179123A1, “Methods and compositions for treating diseases associated with pathogenic proteins” (priority 2005, published 2007).

≈ marks a conversion by molar mass, not a printed value. Where “and” joins values, the source holds several entries; their conditions need not be identical. Equal entries are not always repeated. Some results are limits rather than exact numbers.

Data set [1] has as its target amyloid peptide (Homo sapiens, UniProt P05067). Put plainly: Inhibition of amyloid fibrillogenesis, Congo Red assay.
Data set [2] addresses PrP^Sc in 22L-infected N2a cells (Mus musculus, UniProt P04925). Put plainly: cell-based. As to conditions: for IC50: IC50 for purging of PRP^Sc in 22L-infected N2a cells.
Data set [3] has as its target PrP^Sc in RML-infected N2a cells (Mus musculus, UniProt P04925). Description: cell-based. As to conditions: for IC50: IC50 for purging of PRP^Sc in RML-infected N2a cells.
Data set [4] relates to RML-infected N2a cells.
Data set [5] has as its system 22L-infected N2a cells. Description: Toxicity seen in 22L-infected N2a cell assay (light microscopy). The class given is cell-based, mouse. The conditions noted are these: @ 10 μM. The procedure: 10 mM solutions of tafenoquine were prepared and diluted in DMSO and then into PBS prior to being introduced to the cell medium. 5 μL of solutions were added to the cell medium. DMSO concentrations in the cell media were never higher than 0.5% (v/v). After tafenoquine was added, the cells were incubated for 5 days at 37° C. in a CO2 incubator before being lysed. Prior to cell lysis, the cells were inspected by light microscopy for toxicity, bacterial contamination, and density compared to controls. After removal of the cell media, 50 μL of lysis buffer was added to each well. Lysis buffer was composed of 0.5% (w/v) Triton X-100, 0.5% (w/v) sodium deoxycholate, 5 mM Tris-HCl, pH 7.4 at 4° C., 5 mM EDTA, and 150 mM NaCl. Five minutes after adding lysis buffer, 25 μL of 0.1 mg/mL PK (Calbiochem) in TBS was added to each well and incubated at 37° C. for 50 minutes. 225 μL of 1 mM Pefabloc (Boehringer Mannheim) was then added to each well to inhibit PK activity. 250 μL of 1 mM Pefabloc was added to samples that were not PK-treated.

The test system of data set [6] is yeast PSI^+ (the yeast prion protein Sup35). Put plainly: microbe, parasite or virus in culture. The class given is cell-based.
The target in data set [7] is yeast prion protein Sup-NM (Saccharomyces cerevisiae, UniProt P05453). Description: biochemical. The conditions noted are these: for IC50: IC50 for inhibition of Sup35 yeast prion polymerization.
The target of data set [8] is T1, Aβ42 (Homo sapiens, UniProt P05067).
T1 construct: 40 μM fresh Aβ42, Lanes 3-7: 40 μM Aβ42 with mefloquin
Put plainly: Amyloid fibrillogenesis gel assay. The class given is biochemical. As to conditions: 40 μM Aβ42, 3-100 μg/ml compound, 5 days. The procedure: (§1) The 40 μM solution was used in fibrillogenesis assay, as described below. The 60 μM peptide solution was undisturbed for six months and allowed to form fibrils, and was utilized in a fibril disassociation assay.
(§2) Mefloquin was dissolved in DMSO and diluted 100 fold into the final reaction mixture, keeping the DMSO concentration constant at 1% (v/v). After incubation, 10 ul of each sample was mixed with 2.5 μl of 4×SDS-sample buffer (Invitrogen), and loaded onto a precast 12% BT gel (Invitrogen). The electrophoresis was run with MES running buffer (Invitrogen) at 200V, and the gels were stained using a silverXpress silver staining kit (Invitrogen). The lane assignments are as follows: Lane 1: molecular weight markers, 2; 40 μM fresh Aβ42, Lanes 3-7: 40 μM Aβ42 with mefloquin from 0, 3, 10, 30 to 100 μg/ml. Lanes 8-12: 10 μl Aβ42 fibrils with mefloquin from 0, 3, 10, 30 to 100 μg/ml.
(§3) Gels were photographed and scanned, and the band densities was analyzed using NIH Imagequant, version 5.2 (GE Healthcare, Sunnyvale, Calif.).

The target in data set [9] is Aβ42 fibrils (Homo sapiens, UniProt P05067). Description: Fibril disassociation gel assay. As to conditions: 3-100 μg/ml compound. The class given is biochemical. The procedure: as §1, §2, §3
Sequence of Aβ42 fibrils (P05067 672-713, species assumed): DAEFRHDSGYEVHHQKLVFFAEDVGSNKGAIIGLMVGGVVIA

Sequence of amyloid peptide (P05067 672-713): as the sequence (P05067 672-713, species assumed) above
Sequence of PrP^Sc in RML-infected N2a cells (P04925 23-230 limits assumed): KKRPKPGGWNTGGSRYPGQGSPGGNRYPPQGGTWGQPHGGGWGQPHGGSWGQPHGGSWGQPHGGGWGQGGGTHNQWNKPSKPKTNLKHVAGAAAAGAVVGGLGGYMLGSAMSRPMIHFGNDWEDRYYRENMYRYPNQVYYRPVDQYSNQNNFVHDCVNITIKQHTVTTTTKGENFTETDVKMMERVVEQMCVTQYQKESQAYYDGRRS
Sequence of PrP^Sc in 22L-infected N2a cells (P04925 23-230 limits assumed): as above
Sequence of yeast prion protein Sup-NM (P05453 1-254 limits assumed): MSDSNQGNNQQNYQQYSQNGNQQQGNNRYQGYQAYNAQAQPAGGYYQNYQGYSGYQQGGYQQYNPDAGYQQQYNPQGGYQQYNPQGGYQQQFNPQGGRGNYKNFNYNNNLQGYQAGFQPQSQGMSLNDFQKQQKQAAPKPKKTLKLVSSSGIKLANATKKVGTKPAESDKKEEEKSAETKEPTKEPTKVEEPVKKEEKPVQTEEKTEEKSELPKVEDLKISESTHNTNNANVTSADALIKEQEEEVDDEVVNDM
T1 sequence (P05067 672-713, species assumed): as the sequence (P05067 672-713, species assumed) above

Usually IC50 stands for the concentration that inhibits the measured activity by half. As to `CCCCCCN(CCCCCC)CCCCCCNc1cc(OC)cc2c(C)ccnc12`, the 50% inhibitory concentration (IC50) in data set [1] was under 11 µM. Same read-out and setting: with `COc1cc(NC(C)CCC(C)(C)N)c2nccc(C)c2c1Oc1cccc(C(F)(F)F)c1` (stereo not drawn) the figure was 32.5 to 65 µM.

`CCN(CC)CCCC(C)Nc1cc(OC)cc2c(C)ccnc12` (stereo not drawn) gave an IC50 in [2] of 3 to 5 µM.

In [1], `COc1cc(NCCCCCNC(C)C)c2nccc(C)c2c1` yielded a half-inhibitory concentration (IC50) of about 15.8 µM.

In turn, `C=CC1CN2CCC1CC2[C@H](O)c1ccnc2ccc(OC)cc12` (stereo partly drawn) gave an IC50 in [3] of 6 µM.

Regarding `CCC1CN2CCC1CC2[C@H](O)c1ccnc2ccc(OC)cc12` (stereo partly drawn), it took 12.5 µM to reach half-maximal inhibition in data set [3] (IC50). As for `C=CC1CN2CCC1CC2[C@@H](O)c1ccnc2ccc(OC)cc12` (stereo partly drawn), half-maximal inhibition in data set [3] (IC50) was put at 3 µM.

Consider `CCC1CN2CCC1CC2[C@@H](O)c1ccnc2ccc(OC)cc12` (stereo partly drawn), for which the “Toxicity (note in the RML-infected N2a cells column)” value in data set [4] is recorded as “(toxic @ μM)”. In turn, `C=CC1CN2CCC1CC2[C@@H](O)c1ccnc2ccccc12` (stereo partly drawn) gave an IC50 in [3] of 6 µM. In data set [3], `C=CC1CN2CCC1CC2[C@H](O)c1ccnc2ccccc12` (stereo partly drawn) came in with a half-maximal inhibitory concentration (IC50) of 18 µM. In the case of `COc1cc(C)c2c(Oc3cccc(C(F)(F)F)c3)c(OC)cc(NC(C)CCCNO)c2n1` (stereo not drawn), in [3], the IC50 is about 10.4 µM. Take `Oc1ccc(Cl)c2cccnc12`: the “Toxicity (note in the 22L-infected N2a cells column)” value in [5] is “Toxic @ 10 μM”. Turning to `C=CC1CN2CCC1CC2C(O)c1ccnc2ccc(OC)cc12` (stereo not drawn), in data set [2], the IC50 lay in the range of 3 to 5 µM.

In data set [3], `COc1cc(NC(C)CCCN)c2ncccc2c1` (stereo not drawn) gave an IC50 of under 10 µM. Broadly, the inhibition is the share of the control response that was lost under treatment. For the compound `OC(c1cc(C(F)(F)F)nc2c(C(F)(F)F)cccc12)C1CCCCN1` (racemic) [mefloquine, DL-erythro-α-2-piperidyl-2,8-bis(trifluoromethyl)-4-quinolinemethanol, reference compound], the IC50 in [3] is 0.5 µM; in data set [2], 1.27 µM and 1.2 µM. Moreover, the “inhibition of the induction of PSI+ (in words)” value in data set [6] was “concentration dependent inhibition”. The inhibition at 150 µg/mL in [7] (read-out: inhibition of the polymerization of Sup-NM) was about 55%. In data set [8], the “inhibition of fibrillogenesis of amyloid peptide, gel assay (in words)” value is “inhibited fibrillogenesis”. The “disassociation of amyloid fibrils, gel assay (in words)” value in data set [9] is given as “increase of monomeric amyloid peptide”. With `COc1cc(C)c2c(Oc3cccc(C(F)(F)F)c3)c(OC)cc(NC(C)CCCN)c2n1` (racemic) [tafenoquine, (±)-8-[(4-amino-1-methylbutyl)amino]-2,6-dimethoxy-4-methyl-5-(3-trifluoromethylphenoxy)quinoline], the 50% inhibitory concentration (IC50) is 0.716 µM and 0.72 µM in data set [3]; over 2.2 µM in data set [2]; 4.5 µg/mL (≈ 9.71 µM) in [6] (Saccharomyces cerevisiae, 24 h, read-out: IC50 for inhibition of induction of PSI+); 11.2 µM in [7] (thioflavin T, 25° C.). Moreover, in data set [7] (concentrations up to 200 μg/mL), the “inhibition of Sup-NM amyloid polymerization (in words)” value is “nearly complete inhibition”. Turning to `COc1cc(NC(C)CCCN)c2nccc(C)c2c1Oc1cccc(C(F)(F)F)c1` (stereo not drawn) [compound 3], the IC50 in data set [3] was 0.609 µM and 0.54 µM; in data set [2], 0.508 µM and 1.2 µM; in data set [7] (thioflavin T, 25° C.), ~34.6 µM and 34.6 µM; in data set [1], 23.1 µM. In addition, the “inhibition of fibrillogenesis of amyloid peptide, gel assay (in words)” value in data set [8] is on record as “inhibited fibrillogenesis”. In data set [9], the “disassociation of amyloid fibrils, gel assay (in words)” value is recorded as “increase of monomeric amyloid peptide”. In data set [1], `COc1cc(CO)c2c(Oc3cccc(C(F)(F)F)c3)c(OC)cc(NC(C)CCCN)c2n1` (stereo not drawn) [compound 8] showed a concentration for half-maximal inhibition (IC50) of about 10.4 µM. In the case of “(±)-8-[(4-amino-1-methylbutyl) amino]-2,6-dimethoxy-4-methyl-5-(3-trifluoromethylphenoxy)quinoline [tafenoquine]”, the “IC50 for purging of PRP^Sc in RML-infected N2a cells” value in data set [3] was found to be 0.332 µg/mL. Besides, the “IC50 for purging of PRP^Sc in 22L-infected N2a cells” value in data set [2] came out at 0.44 µg/mL. Besides, in data set [6] (24 h with 50 μM copper sulfate), the “IC50 for inhibition of induction of PSI+” value is 4.5 µg/mL. Also, the “IC50 for inhibition of Sup35 yeast prion polymerization” value in data set [7] (thioflavin T, 25° C.) was determined as 5.2 ± 1.1 µg/mL.
